Assay [1] has as its target T1, A1AR (Homo sapiens, UniProt P30542).
T1 construct: expressed in transfected cells
T1 sequence (P30542 1-326): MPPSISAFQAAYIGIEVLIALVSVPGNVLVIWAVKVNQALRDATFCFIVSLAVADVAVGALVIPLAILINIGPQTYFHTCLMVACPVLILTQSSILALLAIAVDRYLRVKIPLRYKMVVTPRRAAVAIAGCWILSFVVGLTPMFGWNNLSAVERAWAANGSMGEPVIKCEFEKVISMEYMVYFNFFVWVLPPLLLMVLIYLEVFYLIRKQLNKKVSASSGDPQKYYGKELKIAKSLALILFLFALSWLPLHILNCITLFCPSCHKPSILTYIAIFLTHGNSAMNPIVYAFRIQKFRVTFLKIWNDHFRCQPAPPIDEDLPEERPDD
Briefly: Competition radioligand binding, hA1AR ([3H]DPCPX). The settings on record: [3H]DPCPX 0.5 nM; for Ki: HEK-293 membranes, 1 h 25 °C, mean ± SEM, read-out: Affinity, Ki, A1; for inhibition at 10 µM: percent inhibition at 10 μM. The protocol: (§1) The affinity of the amine congeners and other antagonists was measured using standard radioligand binding assays for hA1, A2A and A3ARs (Table 1).[1],[13],[14],[22] Membranes of human embryonic kidney (HEK)293 cells expressing the AR of interest were used in the assay. Primary amine congeners 6a–6d containing spacers of 2–5 methylenes were similar in terms of hA2AAR affinity (Ki 6–9 nM), with the butylamino congener 6c displaying the highest A2AAR selectivity in the series. The affinity of this compound for the hA3AR was determined to be 6.0 μM, with only slightly higher hA1AR affinity. Homologation to 6 methylenes in compound 6e lowered A2AAR affinity. […] No dependence of the affinity on the chain length was evident when comparing AlexaFluor647 conjugates 9 and 10. […]
(§2) Radioligand binding assays: Cell membranes were prepared as reported.1
(§3) Binding assays were carried out using standard radioligands and membrane preparations from HEK-293 cells stably expressing the human (h) A1, A2A or A3ARs or mouse (m) A1, A2A or A3ARs. The radioligands used were: A1AR, [3H]8-cyclopentyl-1,3-dipropylxanthine 14; A2AAR, [3H]2; A3AR, [125I]N6-(4-amino-3-iodobenzyl)adenosine-5′-N-methyluronamide 16. The radioligand for archival A2AAR affinity data presented in Table 1 was [3H]2-[p-(2-carboxyethyl)phenyl-ethylamino]-5′-N-ethylcarboxamidoadenosine 15. Nonspecific binding was determined using 10 µM 8-[4-[[[[(2-aminoethyl)amino]carbonyl]methyl]oxy]phenyl]-1,3-dipropylxanthine 17 (A1AR and A2AAR) or 10 µM adenosine-5′-N-ethyluronamide 18 (A3AR). HEK-293 cells expressing recombinant mA1, A2A, or A3AR […]
(§4) Protein was determined as reported.2 In all the binding experiments, IC50 values and Ki values were calculated using GraphPad Prism software (San Diego, CA). Values are expressed as mean±SEM. […]
(§5) Med. Chem. Comm., 2015, 6:555-563.
(§6) 2. Bradford, M. M. A rapid and sensitive method for the quantitation of microgram quantities of protein utilizing the principle of protein -dye binding. Anal. Biochem. 1976, 72, 248-254.

Assay [2] has as its target T2, A2AAR (Homo sapiens, UniProt P29274).
T2 construct: expressed in transfected cells
The assay can be described thus: Competition radioligand binding, hA2AAR ([3H]ZM241385 or [3H]CGS21680). Particulars: human A2AAR, HEK-293 membranes, [3H]ZM241385 1.0 nM, 1 h 25 °C, mean ± SEM; read-out: Affinity, Ki, A2A. How it is done: (§7) The affinity of the amine congeners and other antagonists was measured using standard radioligand binding assays for hA1, A2A and A3ARs (Table 1).[1],[13],[14],[22] Membranes of human embryonic kidney (HEK)293 cells expressing the AR of interest were used in the assay. Primary amine congeners 6a–6d containing spacers of 2–5 methylenes were similar in terms of hA2AAR affinity (Ki 6–9 nM), with the butylamino congener 6c displaying the highest A2AAR selectivity in the series. The affinity of this compound for the hA3AR was determined to be 6.0 μM, with only slightly higher hA1AR affinity. Homologation to 6 methylenes in compound 6e lowered A2AAR affinity. […] No dependence of the affinity on the chain length was evident when comparing AlexaFluor647 conjugates 9 and 10.
Fig. 1 Antagonist radioligand ([^3H]2, 1.0 nM) binding inhibition curves for the hA2AAR for four antagonist fluorescent conjugates. Compound numbers: MRS7322 9, MRS7395 10, MRS7396 11 and MRS7416 12. Membranes from HEK-293 cells expressing the hA2AAR were used, and their incubation was performed for 1 h at 25 °C. Results are expressed as the mean ± SEM.
(§8) Cell culture for membrane binding assays and flow cytometry: HEK-293 cells stably expressing the A2AAR were grown in Dulbecco’s Modified Eagle’s Medium (DMEM) with 10% FBS, 100 units/ml penicillin, […] streptomycin, 2 mM L-glutamine and 0.500 mg/mL G418 Sulfate (Geneticin). […]
as §2, §3, §4, §5, §6

Assay [3] concerns the target T3, A3AR (Homo sapiens, UniProt P0DMS8).
T3 construct: expressed in transfected cells
T3 sequence (P0DMS8 1-318): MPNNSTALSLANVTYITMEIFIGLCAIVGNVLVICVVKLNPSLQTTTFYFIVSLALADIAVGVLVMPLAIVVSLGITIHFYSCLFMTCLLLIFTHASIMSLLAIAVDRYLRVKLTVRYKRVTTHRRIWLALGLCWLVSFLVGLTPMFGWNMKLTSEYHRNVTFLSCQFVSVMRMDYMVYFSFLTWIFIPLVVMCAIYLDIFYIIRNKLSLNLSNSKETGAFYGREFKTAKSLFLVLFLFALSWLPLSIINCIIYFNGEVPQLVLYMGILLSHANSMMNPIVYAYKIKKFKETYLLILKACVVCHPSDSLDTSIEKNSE
Briefly: Competition radioligand binding, hA3AR ([125I]I-AB-MECA). Particulars: for inhibition at 10 µM: percent inhibition at 10 μM, read-out: % inhib, A3. How it is done:
as §1, §2, §3, §4, §5, §6

In assay [4] the target is T4, 5HT2B receptor (Homo sapiens, UniProt P41595).
T4 construct: PDSP (screening service)
T4 sequence (P41595 whole entry): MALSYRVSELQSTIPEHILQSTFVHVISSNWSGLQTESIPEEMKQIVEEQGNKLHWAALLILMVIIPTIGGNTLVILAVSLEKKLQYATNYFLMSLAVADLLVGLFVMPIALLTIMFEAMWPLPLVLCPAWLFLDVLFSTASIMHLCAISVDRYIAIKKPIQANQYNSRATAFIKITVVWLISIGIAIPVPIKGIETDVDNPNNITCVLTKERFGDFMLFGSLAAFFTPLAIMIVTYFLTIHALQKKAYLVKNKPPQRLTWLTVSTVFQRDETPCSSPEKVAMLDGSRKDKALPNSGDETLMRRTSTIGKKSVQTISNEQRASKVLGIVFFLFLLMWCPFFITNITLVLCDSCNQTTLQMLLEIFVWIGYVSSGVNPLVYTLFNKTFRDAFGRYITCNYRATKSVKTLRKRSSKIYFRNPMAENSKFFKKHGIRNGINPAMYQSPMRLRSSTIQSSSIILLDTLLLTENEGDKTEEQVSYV
Briefly: PDSP off-target radioligand binding, 5HT2B. The settings on record: PDSP radioligand binding inhibition. The protocol: (§9) . Off-target binding activities at 45 diverse receptors were determined by PDSP[25] for selected compounds: 6c and 13 (ESI ^†). […]; 1.92 μM, 5HT2B receptor. Thus, the primary amine precursor of the fluorescent conjugates 10–12 was not promiscuous in its interaction with other proteins, i.e. this chemical series is not associated with pan-assay interference compounds.[26]
(§10) Chinese hamster ovary (CHO) cells stably expressing the human A2AAR were cultured in Dulbecco's Modified Eagle Medium (Mediatech, Manassas, VA) supplemented with 10% fetal bovine serum, 100 units/ml penicillin, 100 µg/ml streptomycin and 2 µmol/ml glutamine. Cells were plated in 96-well plates in 100 µl medium. After 24 h, the medium was removed and cells were washed three times with 100 µl DMEM, containing 50 mM HEPES, pH 7.4. Cells were treated with antagonists (or medium for control) in the presence of rolipram (10 µM) and adenosine deaminase (3 units/ml) and 5 min later with agonist for 20 min. The reaction was terminated by removal of the supernatant, and cells were lysed upon the addition of 100 µl of lysis buffer (0.3% Tween-20). cAMP was measured using ALPHAScreen cAMP kits (PerkinElmer, Boston, MA) as instructed by the manufacturer.
(§11) Refer to: http://pdspdb.unc.edu for full list of comprehensive screen at 45 targets.
(§12) 5HT2A serotonin receptor: […]

The target of assay [5] is T5, 5HT2A serotonin receptor (Homo sapiens, UniProt P28223).
T5 construct: PDSP (screening service)
T5 sequence (P28223 whole entry): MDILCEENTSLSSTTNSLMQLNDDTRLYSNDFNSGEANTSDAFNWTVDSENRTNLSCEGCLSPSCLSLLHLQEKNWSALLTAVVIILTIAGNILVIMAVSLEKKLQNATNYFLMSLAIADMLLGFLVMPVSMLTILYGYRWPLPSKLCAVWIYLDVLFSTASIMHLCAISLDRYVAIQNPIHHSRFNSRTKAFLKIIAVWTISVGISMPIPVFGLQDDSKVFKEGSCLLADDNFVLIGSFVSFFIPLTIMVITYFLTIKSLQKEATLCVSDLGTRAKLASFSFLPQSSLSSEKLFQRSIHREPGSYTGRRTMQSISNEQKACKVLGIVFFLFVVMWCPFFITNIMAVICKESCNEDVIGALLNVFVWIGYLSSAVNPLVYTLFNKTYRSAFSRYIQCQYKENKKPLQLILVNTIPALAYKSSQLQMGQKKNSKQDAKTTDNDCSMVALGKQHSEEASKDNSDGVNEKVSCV
Briefly: PDSP off-target radioligand binding, 5HT2A. The settings on record: PDSP radioligand binding inhibition. How it is done:
as §9, §10, §11, §12

For assay [6], the target named is T1, A1AR. The arrangement: method as in earlier work. The settings on record: percent inhibition at 10 μM, 14 (Kumar et al. and Kecskés et al.); cited from earlier work.
The target of assay [7] is T3, A3AR. The arrangement: method as in earlier work. The settings on record: percent inhibition at 10 μM, 14 (Kumar et al. and Kecskés et al.); cited from earlier work.
The target in assay [8] is T6, mA3AR (Mus musculus, UniProt Q61618).
T6 construct: expressed in transfected cells; host or cells: HEK-293
T6 sequence (Q61618 1-319): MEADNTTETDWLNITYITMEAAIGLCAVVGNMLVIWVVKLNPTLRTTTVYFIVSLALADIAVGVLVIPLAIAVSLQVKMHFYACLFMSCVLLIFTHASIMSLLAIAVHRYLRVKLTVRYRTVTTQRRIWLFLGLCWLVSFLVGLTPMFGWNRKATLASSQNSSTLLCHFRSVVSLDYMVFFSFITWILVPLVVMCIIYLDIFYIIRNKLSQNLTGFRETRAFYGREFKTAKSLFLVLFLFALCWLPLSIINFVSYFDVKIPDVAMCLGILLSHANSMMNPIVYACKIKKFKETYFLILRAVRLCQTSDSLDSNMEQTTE
Briefly: Competition radioligand binding, mA3AR. The settings on record: mouse A3AR, percent inhibition at 10 μM; read-out: % inhib, A3 (m) (converted). The protocol:
as §1, §2, §3, §4, §5, §6

The target of assay [9] is T7, mA1AR (Mus musculus, UniProt Q60612).
T7 construct: expressed in transfected cells; host or cells: HEK-293
T7 sequence (Q60612 1-326): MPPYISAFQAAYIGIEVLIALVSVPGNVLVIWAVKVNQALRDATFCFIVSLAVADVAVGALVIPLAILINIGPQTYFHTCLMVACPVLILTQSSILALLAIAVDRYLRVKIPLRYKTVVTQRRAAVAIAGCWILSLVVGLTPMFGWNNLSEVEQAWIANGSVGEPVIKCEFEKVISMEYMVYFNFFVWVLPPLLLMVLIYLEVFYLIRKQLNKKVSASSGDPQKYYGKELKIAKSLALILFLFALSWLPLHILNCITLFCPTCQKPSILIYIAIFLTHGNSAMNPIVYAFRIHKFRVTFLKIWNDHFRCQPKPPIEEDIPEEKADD
Briefly: Competition radioligand binding, mA1AR. Particulars: mouse A1AR, percent inhibition at 10 μM. How it is done: as §1, §2, §3, §4, §5, §6

Assay [10] has as its target T8, mA2AAR (Mus musculus, UniProt Q60613).
T8 construct: expressed in transfected cells; host or cells: HEK-293
Briefly: Competition radioligand binding, mA2AAR. Particulars: mouse A2AAR, HEK-293 membranes, mean ± SEM; read-out: Affinity, Ki, A2A (m) (converted). The protocol:
as §7, §8, §2, §3, §4, §5, §6

Setting [11] is: HEK-293 membranes, [125I]I-AB-MECA 0.2 nM, 1 h 25 °C, mean ± SEM, read-out: Affinity, Ki, A3.

Like-named read-outs stand apart in the source and are kept apart here. Marks after values point to notes of the source that are not given here.

T2 sequence (P29274 whole entry): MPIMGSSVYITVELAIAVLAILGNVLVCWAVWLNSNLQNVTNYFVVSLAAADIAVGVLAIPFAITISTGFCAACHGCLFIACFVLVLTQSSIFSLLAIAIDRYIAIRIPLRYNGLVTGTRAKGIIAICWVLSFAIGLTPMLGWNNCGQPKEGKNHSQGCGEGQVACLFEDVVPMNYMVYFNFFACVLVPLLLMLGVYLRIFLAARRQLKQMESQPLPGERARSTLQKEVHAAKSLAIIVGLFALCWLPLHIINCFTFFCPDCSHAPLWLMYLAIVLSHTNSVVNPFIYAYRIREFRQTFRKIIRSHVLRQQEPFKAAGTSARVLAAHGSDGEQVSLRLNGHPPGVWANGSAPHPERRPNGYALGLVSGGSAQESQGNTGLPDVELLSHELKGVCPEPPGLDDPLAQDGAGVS
T8 sequence (Q60613 whole entry): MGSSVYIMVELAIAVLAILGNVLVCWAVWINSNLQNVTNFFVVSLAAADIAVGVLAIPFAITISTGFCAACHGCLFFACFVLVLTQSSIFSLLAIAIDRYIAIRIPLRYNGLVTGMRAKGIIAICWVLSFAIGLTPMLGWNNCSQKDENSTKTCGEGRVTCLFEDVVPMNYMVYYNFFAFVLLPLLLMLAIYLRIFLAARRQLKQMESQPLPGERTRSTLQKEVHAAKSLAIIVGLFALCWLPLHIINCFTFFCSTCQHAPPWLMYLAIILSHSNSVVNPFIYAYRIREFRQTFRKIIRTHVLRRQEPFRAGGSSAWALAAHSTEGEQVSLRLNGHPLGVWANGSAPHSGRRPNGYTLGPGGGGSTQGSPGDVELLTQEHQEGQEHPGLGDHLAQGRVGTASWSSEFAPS

Consider `NCCCNC(=O)COc1ccc(CCCn2ncc3c2nc(N)n2nc(-c4ccco4)nc32)cc1` [6b], for which the Ki in [1] is 1.3 ± 0.35 µM; in assay [2] it was 0.00929 ± 0.00792 µM; in assay [3] (setting [11]) it was 2.17 ± 0.66 µM.
As for `NCCCCNC(=O)COc1ccc(CCCn2ncc3c2nc(N)n2nc(-c4ccco4)nc32)cc1` [6c], the Ki in [4] is 1.92 µM; in [5], 3.36 µM; in assay [1], 2.39 ± 0.1 µM; in assay [2] it was 0.00646 ± 0.00163 µM; in [3] (setting [11]), 5.99 ± 2.9 µM; in assay [3] (read-out: affinity for the hA3AR), 6 µM.
Regarding `NCCCCCNC(=O)COc1ccc(CCCn2ncc3c2nc(N)n2nc(-c4ccco4)nc32)cc1` [6d], the Ki stood at 1.91 ± 0.12 µM in assay [1], 0.00636 ± 0.00358 µM in assay [2] and 0.656 ± 0.132 µM in assay [3] (setting [11]).
`NCCCCCCNC(=O)COc1ccc(CCCn2ncc3c2nc(N)n2nc(-c4ccco4)nc32)cc1` [6e]: the Ki came out at 6.5 ± 2.83 µM in [1], 0.0228 ± 0.00845 µM in assay [2] and 2.07 ± 0.85 µM in [3] (setting [11]).
Take `COc1ccc(CCCn2ncc3c2nc(N)n2nc(-c4ccco4)nc32)cc1` [compound 3, 5-amino-7-(3-(4-methoxy)phenylpropyl)-2-(2-furyl)pyrazolo[4,3-e]-1,2,4-triazolo[1,5-c]pyrimidine]: in [6], the “% inhib, A1” value is “(35 ± 5%) ^c”. In assay [7], the “% inhib, A3” value is recorded as “(67 ± 1%) ^c”.
As for `N=c1ccc2c(-c3ccc(C(=O)NCCNC(=O)COc4ccc(CCCn5ncc6c5nc(N)n5nc(-c7ccco7)nc65)cc4)cc3C(=O)O)c3ccc(N)c(S(=O)(=O)O)c3oc-2c1S(=O)(=O)O` [compound 5], in [6], the “% inhib, A1” value is listed as “(20 ± 3%) ^c”. In assay [7], the “% inhib, A3” value is on record as “(4 ± 2%) ^c”.
Regarding `Nc1nc2c(cnn2CCCc2ccc(O)cc2)c2nc(-c3ccco3)nn12` [compound 7], in assay [6], the “% inhib, A1” value is given as “(66 ± 2%) ^c”. Besides, the “% inhib, A3” value in assay [7] was “(34 ± 3%) ^c”.
For the compound `CC1(C)C(/C=C/C=C/C=C2/N(CCCS(=O)(=O)O)c3ccc(S(=O)(=O)O)cc3C2(C)CCCCCC(=O)NCCNC(=O)COc2ccc(CCCn3ncc4c3nc(N)n3nc(-c5ccco5)nc43)cc2)=[N+](CCCS(=O)(=O)O)c2ccc(S(=O)(=O)[O-])cc21` (stereo not drawn) [compound 9], the inhibition at 10 µM in assay [8] was 4%; in [1], 13%; in [9] it was 3%; in assay [3] ([125I]I-AB-MECA 0.2 nM), 21%. Also, the Ki is 0.332 ± 0.165 µM in assay [2] and 0.458 µM in [10].
In the case of `CC1(C)C(/C=C/C=C/C=C2/N(CCCS(=O)(=O)O)c3ccc(S(=O)(=O)O)cc3C2(C)CCCCCC(=O)NCCCCNC(=O)COc2ccc(CCCn3ncc4c3nc(N)n3nc(-c5ccco5)nc43)cc2)=[N+](CCCS(=O)(=O)O)c2ccc(S(=O)(=O)[O-])cc21` (stereo not drawn) [compound 10], the inhibition at 10 µM in assay [1] was 20%; in assay [3] ([125I]I-AB-MECA 0.2 nM) it was 21%. Further, the Ki in assay [2] is 0.295 ± 0.176 µM.

(Values after PMC5729930, “Bitopic fluorescent antagonists of the A2A adenosine receptor based on pyrazolo[4,3-e][1,2,4]triazolo[1,5-c]pyrimidin-5-amine functionalized congeners” (MedChemComm, 2017).)
